These compounds were tested against ecNadD (Escherichia coli (strain K12), UniProt P0A752) (assay: biochemical). Details: not given.
Assay type: biochemical

Compound	INHIBITION (%) E. coli
Nc1c(C(=O)Nc2cc(F)ccc2F)sc2nc(-c3cccs3)ccc12 [03_18]	41% 35

Same assay, conditions: IC50 ecNadD

Compound	IC50
Nc1c(C(=O)Nc2cc(Cl)cc(Cl)c2)sc2nc(-c3cccs3)ccc12 [03_03]	64 µM
Nc1c(C(=O)Nc2ccc(Cl)cc2Cl)sc2nc(-c3ccncc3)ccc12 [03_04]	21 µM
Nc1c(C(=O)Nc2ccc(F)cc2)sc2nc(-c3ccncc3)ccc12 [03_06]	> 200 µM
Nc1c(C(=O)Nc2ccc(F)cc2F)sc2nc(-c3cccs3)ccc12 [03_07]	44 µM
Nc1c(C(=O)Nc2ccc(Cl)cc2)sc2nc(-c3ccc(F)cc3)ccc12 [03_08]	> 200 µM
Nc1c(C(=O)Nc2ccc(Cl)cc2Cl)sc2nc(-c3cccs3)ccc12 [03_11]	30 µM
Nc1c(C(=O)Nc2cccc(Cl)c2)sc2nc(-c3cccs3)ccc12 [03_12]	71 µM
Nc1c(C(=O)Nc2ccc(F)c(F)c2)sc2nc(-c3cccs3)ccc12 [03_14]	117 µM
Nc1c(C(=O)Nc2cccc(Cl)c2)sc2nc(-c3ccc(F)cc3)ccc12 [03_16]	50 µM
Nc1c(C(=O)Nc2cc(F)ccc2F)sc2nc(-c3cccs3)ccc12 [03_18]	35 µM
Nc1c(C(=O)Nc2c(Cl)cccc2Cl)sc2nc(-c3cccnc3)ccc12 [03_20]	> 200 µM
Nc1c(C(=O)Nc2ccc(F)c(Cl)c2)sc2nc(-c3ccncc3)ccc12 [03_22]	100 µM
Nc1c(C(=O)Nc2ccc(F)c(F)c2)sc2nc(-c3ccc(F)cc3)ccc12 [03_24]	> 200 µM
Cc1ccc(N/C=C2\C(=O)Nc3ccccc32)cc1Cl [15_01]	> 200 µM
O=C1Nc2ccccc2/C1=C/Nc1ccc(Br)cc1 [15_09]	> 200 µM
Cc1ccc(N/C=C2\C(=O)Nc3ccccc32)cc1C [15_14]	88 µM
CCc1ccccc1N/C=C1\C(=O)Nc2ccccc21 [15_27]	> 200 µM

Same assay, conditions: read-out: INHIBITION (%) E. coli

Compound	inhibition at 100 µM
Nc1c(C(=O)Nc2cc(Cl)cc(Cl)c2)sc2nc(-c3cccs3)ccc12 [03_03]	93%
Nc1c(C(=O)Nc2ccc(Cl)cc2Cl)sc2nc(-c3ccncc3)ccc12 [03_04]	84%
Nc1c(C(=O)Nc2ccc(F)cc2)sc2nc(-c3ccncc3)ccc12 [03_06]	80%
Nc1c(C(=O)Nc2ccc(F)cc2F)sc2nc(-c3cccs3)ccc12 [03_07]	69%
Nc1c(C(=O)Nc2ccc(Cl)cc2)sc2nc(-c3ccc(F)cc3)ccc12 [03_08]	68%
Nc1c(C(=O)Nc2ccc(Cl)c(Cl)c2)sc2nc(-c3cccs3)ccc12 [03_09]	60%
Nc1c(C(=O)Nc2cccc(F)c2)sc2nc(-c3ccc(F)cc3)ccc12 [03_10]	56%
Nc1c(C(=O)Nc2ccc(Cl)cc2Cl)sc2nc(-c3cccs3)ccc12 [03_11]	54%
Nc1c(C(=O)Nc2cccc(Cl)c2)sc2nc(-c3cccs3)ccc12 [03_12]	53%
Nc1c(C(=O)Nc2ccc(F)c(Cl)c2)sc2nc(-c3ccc(F)cc3)ccc12 [03_13]	52%
Nc1c(C(=O)Nc2ccc(F)c(F)c2)sc2nc(-c3cccs3)ccc12 [03_14]	46%
Nc1c(C(=O)Nc2cccc(Cl)c2)sc2nc(-c3ccc(F)cc3)ccc12 [03_16]	46%
Nc1c(C(=O)Nc2ccc(Cl)cc2F)sc2nc(-c3ccc(F)cc3)ccc12 [03_19]	32%
Nc1c(C(=O)Nc2c(Cl)cccc2Cl)sc2nc(-c3cccnc3)ccc12 [03_20]	24%
NC(=O)c1sc2nc(-c3ccc(F)cc3)cc(-c3ccccc3)c2c1N [03_21]	22%
Nc1c(C(=O)Nc2ccc(F)c(Cl)c2)sc2nc(-c3ccncc3)ccc12 [03_22]	21%
Nc1c(C(=O)Nc2ccc(F)c(F)c2)sc2nc(-c3ccc(F)cc3)ccc12 [03_24]	9%
Nc1c(C(=O)Nc2ccc(F)cc2)sc2nc(-c3ccc(F)cc3)ccc12 [03_25]	8%
Nc1c(C(=O)Nc2ccc(F)c(F)c2)sc2nc(-c3ccncc3)ccc12 [03_26]	7%
Nc1c(C(=O)Nc2ccc(F)cc2F)sc2nc(-c3ccncc3)ccc12 [03_27]	0%
Nc1c(C(=O)Nc2cc(Cl)cc(Cl)c2)sc2nc(-c3ccncc3)ccc12 [03_28]	0%
Nc1c(C(=O)Nc2ccc(Cl)cc2)sc2nc(-c3ccncc3)ccc12 [03_29]	0%
Cc1ccc(N/C=C2\C(=O)Nc3ccccc32)cc1Cl [15_01]	24%
Cc1ccc(N/C=C2\C(=O)Nc3ccccc32)c(C)c1 [15_02]	20%

Compound	inhibition at 100 µM
CN(C)c1ccc(N/C=C2\C(=O)Nc3ccccc32)cc1 [15_03]	19%
Cc1ccc(C)c(N/C=C2\C(=O)Nc3ccccc32)c1 [15_04]	18%
O=C1Nc2ccccc2/C1=C/NCc1cccnc1 [15_05]	17%
O=C1Nc2ccccc2/C1=C/Nc1ccc(F)cc1 [15_06]	15%
O=C1Nc2ccccc2/C1=C/Nc1cccc(Cl)c1 [15_07]	15%
COC(=O)c1ccccc1N/C=C1\C(=O)Nc2ccccc21 [15_08]	14%
O=C1Nc2ccccc2/C1=C/Nc1ccc(Br)cc1 [15_09]	13%
Cc1cccc(N/C=C2\C(=O)Nc3ccccc32)c1C [15_10]	13%
CSc1ccc(N/C=C2\C(=O)Nc3ccccc32)cc1 [15_12]	12%
Cc1c(Cl)cccc1N/C=C1\C(=O)Nc2ccccc21 [15_13]	12%
Cc1ccc(N/C=C2\C(=O)Nc3ccccc32)cc1C [15_14]	12%
O=C1Nc2ccccc2/C1=C/Nc1cccnc1 [15_15]	12%
O=C1Nc2ccccc2/C1=C/NCc1ccccc1 [15_16]	11%
O=C1Nc2ccccc2/C1=C/Nc1ccccc1F [15_17]	11%
CSc1cccc(N/C=C2\C(=O)Nc3ccccc32)c1 [15_18]	11%
Cc1ccc(N/C=C2\C(=O)Nc3ccccc32)c(Cl)c1 [15_19]	11%
Cc1cccc(N/C=C2\C(=O)Nc3ccccc32)n1 [15_20]	11%
Cc1cc(C)c(N/C=C2\C(=O)Nc3ccccc32)c(C)c1 [15_21]	10%
O=C1Nc2ccccc2/C1=C/Nc1ccc(F)cc1F [15_22]	10%
Cc1cc(C)cc(N/C=C2\C(=O)Nc3ccccc32)c1 [15_23]	10%
CCc1ccc(N/C=C2\C(=O)Nc3ccccc32)cc1 [15_24]	9%
COc1ccc(N/C=C2\C(=O)Nc3ccccc32)cc1 [15_25]	9%
O=C1Nc2ccccc2/C1=C/Nc1ccccc1Br [15_26]	8%
CCc1ccccc1N/C=C1\C(=O)Nc2ccccc21 [15_27]	8%

Each compound was assayed against baNadD (Bacillus anthracis, UniProt C3L5T6) (assay: biochemical). Details: not given.
Assay type: biochemical

Sequence of baNadD (C3L5T6 whole entry, looked up): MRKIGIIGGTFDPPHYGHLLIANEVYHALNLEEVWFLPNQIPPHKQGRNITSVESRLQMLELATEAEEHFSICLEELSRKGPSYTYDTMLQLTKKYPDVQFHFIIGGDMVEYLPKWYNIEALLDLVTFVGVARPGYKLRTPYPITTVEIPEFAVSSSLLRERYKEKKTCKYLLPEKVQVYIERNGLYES

Compound	INHIBITION (%) B. anthracis
Nc1c(C(=O)Nc2cc(F)ccc2F)sc2nc(-c3cccs3)ccc12 [03_18]	71% 14

Same assay, conditions: IC50 baNadD

Compound	IC50
Nc1c(C(=O)Nc2cc(Cl)cc(Cl)c2)sc2nc(-c3cccs3)ccc12 [03_03]	21 µM
Nc1c(C(=O)Nc2ccc(Cl)cc2Cl)sc2nc(-c3ccncc3)ccc12 [03_04]	21 µM
Nc1c(C(=O)Nc2ccc(F)cc2)sc2nc(-c3ccncc3)ccc12 [03_06]	> 200 µM
Nc1c(C(=O)Nc2ccc(F)cc2F)sc2nc(-c3cccs3)ccc12 [03_07]	18 µM
Nc1c(C(=O)Nc2ccc(Cl)cc2)sc2nc(-c3ccc(F)cc3)ccc12 [03_08]	> 200 µM
Nc1c(C(=O)Nc2ccc(Cl)cc2Cl)sc2nc(-c3cccs3)ccc12 [03_11]	13 µM
Nc1c(C(=O)Nc2cccc(Cl)c2)sc2nc(-c3cccs3)ccc12 [03_12]	15 µM
Nc1c(C(=O)Nc2ccc(F)c(F)c2)sc2nc(-c3cccs3)ccc12 [03_14]	38 µM
Nc1c(C(=O)Nc2cccc(Cl)c2)sc2nc(-c3ccc(F)cc3)ccc12 [03_16]	35 µM
Nc1c(C(=O)Nc2cc(F)ccc2F)sc2nc(-c3cccs3)ccc12 [03_18]	14 µM
Nc1c(C(=O)Nc2c(Cl)cccc2Cl)sc2nc(-c3cccnc3)ccc12 [03_20]	> 200 µM
Nc1c(C(=O)Nc2ccc(F)c(Cl)c2)sc2nc(-c3ccncc3)ccc12 [03_22]	39 µM
Nc1c(C(=O)Nc2ccc(F)c(F)c2)sc2nc(-c3ccc(F)cc3)ccc12 [03_24]	> 200 µM
Cc1ccc(N/C=C2\C(=O)Nc3ccccc32)cc1Cl [15_01]	> 200 µM
O=C1Nc2ccccc2/C1=C/Nc1ccc(Br)cc1 [15_09]	111 µM
Cc1ccc(N/C=C2\C(=O)Nc3ccccc32)cc1C [15_14]	74 µM
CCc1ccccc1N/C=C1\C(=O)Nc2ccccc21 [15_27]	> 200 µM

Same assay, conditions: read-out: INHIBITION (%) B. anthracis

Compound	inhibition at 50 µM
Nc1c(C(=O)Nc2cc(Cl)cc(Cl)c2)sc2nc(-c3cccs3)ccc12 [03_03]	90%
Nc1c(C(=O)Nc2ccc(Cl)cc2Cl)sc2nc(-c3ccncc3)ccc12 [03_04]	79%
Nc1c(C(=O)Nc2ccc(F)cc2)sc2nc(-c3ccncc3)ccc12 [03_06]	40%
Nc1c(C(=O)Nc2ccc(F)cc2F)sc2nc(-c3cccs3)ccc12 [03_07]	83%
Nc1c(C(=O)Nc2ccc(Cl)cc2)sc2nc(-c3ccc(F)cc3)ccc12 [03_08]	28%
Nc1c(C(=O)Nc2ccc(Cl)c(Cl)c2)sc2nc(-c3cccs3)ccc12 [03_09]	63%
Nc1c(C(=O)Nc2cccc(F)c2)sc2nc(-c3ccc(F)cc3)ccc12 [03_10]	60%
Nc1c(C(=O)Nc2ccc(Cl)cc2Cl)sc2nc(-c3cccs3)ccc12 [03_11]	90%
Nc1c(C(=O)Nc2cccc(Cl)c2)sc2nc(-c3cccs3)ccc12 [03_12]	89%
Nc1c(C(=O)Nc2ccc(F)c(Cl)c2)sc2nc(-c3ccc(F)cc3)ccc12 [03_13]	26%
Nc1c(C(=O)Nc2ccc(F)c(F)c2)sc2nc(-c3cccs3)ccc12 [03_14]	92%
Nc1c(C(=O)Nc2cccc(Cl)c2)sc2nc(-c3ccc(F)cc3)ccc12 [03_16]	83%
Nc1c(C(=O)Nc2ccc(Cl)cc2F)sc2nc(-c3ccc(F)cc3)ccc12 [03_19]	61%
Nc1c(C(=O)Nc2c(Cl)cccc2Cl)sc2nc(-c3cccnc3)ccc12 [03_20]	11%
NC(=O)c1sc2nc(-c3ccc(F)cc3)cc(-c3ccccc3)c2c1N [03_21]	58%
Nc1c(C(=O)Nc2ccc(F)c(Cl)c2)sc2nc(-c3ccncc3)ccc12 [03_22]	83%
Nc1c(C(=O)Nc2ccc(F)c(F)c2)sc2nc(-c3ccc(F)cc3)ccc12 [03_24]	5%
Nc1c(C(=O)Nc2ccc(F)cc2)sc2nc(-c3ccc(F)cc3)ccc12 [03_25]	1%
Nc1c(C(=O)Nc2ccc(F)c(F)c2)sc2nc(-c3ccncc3)ccc12 [03_26]	23%
Nc1c(C(=O)Nc2ccc(F)cc2F)sc2nc(-c3ccncc3)ccc12 [03_27]	20%
Nc1c(C(=O)Nc2cc(Cl)cc(Cl)c2)sc2nc(-c3ccncc3)ccc12 [03_28]	0%
Nc1c(C(=O)Nc2ccc(Cl)cc2)sc2nc(-c3ccncc3)ccc12 [03_29]	0%
Cc1ccc(N/C=C2\C(=O)Nc3ccccc32)cc1Cl [15_01]	37%
Cc1ccc(N/C=C2\C(=O)Nc3ccccc32)c(C)c1 [15_02]	29%

Compound	inhibition at 50 µM
CN(C)c1ccc(N/C=C2\C(=O)Nc3ccccc32)cc1 [15_03]	27%
Cc1ccc(C)c(N/C=C2\C(=O)Nc3ccccc32)c1 [15_04]	26%
O=C1Nc2ccccc2/C1=C/NCc1cccnc1 [15_05]	23%
O=C1Nc2ccccc2/C1=C/Nc1ccc(F)cc1 [15_06]	49%
O=C1Nc2ccccc2/C1=C/Nc1cccc(Cl)c1 [15_07]	45%
COC(=O)c1ccccc1N/C=C1\C(=O)Nc2ccccc21 [15_08]	0%
O=C1Nc2ccccc2/C1=C/Nc1ccc(Br)cc1 [15_09]	60%
Cc1cccc(N/C=C2\C(=O)Nc3ccccc32)c1C [15_10]	26%
CSc1ccc(N/C=C2\C(=O)Nc3ccccc32)cc1 [15_12]	25%
Cc1c(Cl)cccc1N/C=C1\C(=O)Nc2ccccc21 [15_13]	36%
Cc1ccc(N/C=C2\C(=O)Nc3ccccc32)cc1C [15_14]	70%
O=C1Nc2ccccc2/C1=C/Nc1cccnc1 [15_15]	10%
O=C1Nc2ccccc2/C1=C/NCc1ccccc1 [15_16]	6%
O=C1Nc2ccccc2/C1=C/Nc1ccccc1F [15_17]	22%
CSc1cccc(N/C=C2\C(=O)Nc3ccccc32)c1 [15_18]	24%
Cc1ccc(N/C=C2\C(=O)Nc3ccccc32)c(Cl)c1 [15_19]	14%
Cc1cccc(N/C=C2\C(=O)Nc3ccccc32)n1 [15_20]	8%
Cc1cc(C)c(N/C=C2\C(=O)Nc3ccccc32)c(C)c1 [15_21]	30%
O=C1Nc2ccccc2/C1=C/Nc1ccc(F)cc1F [15_22]	28%
Cc1cc(C)cc(N/C=C2\C(=O)Nc3ccccc32)c1 [15_23]	32%
CCc1ccc(N/C=C2\C(=O)Nc3ccccc32)cc1 [15_24]	17%
COc1ccc(N/C=C2\C(=O)Nc3ccccc32)cc1 [15_25]	16%
O=C1Nc2ccccc2/C1=C/Nc1ccccc1Br [15_26]	8%
CCc1ccccc1N/C=C1\C(=O)Nc2ccccc21 [15_27]	42%
